According to publication PMC6429200, “Synthesis and Broad Antiviral Activity of Novel 2-aryl-isoindolin-1-ones towards Diverse Enterovirus A71 Clinical Isolates” (Molecules, 2019):
Where two headings read alike, the source gives them in different places.

Key:
EV-A71 strain H = assay: CPE inhibition assay for anti-EV-A71 in Vero cells, H strain; type: cell-based, Enterovirus 71 (EV-A71); details: for H SI: CC50/EC50; for EC50: Enterovirus A, EVA71, Vero cells, 100TCID50, 48 h
Description: (§1) An in-vitro antiviral assay was established using the Africa monkey kidney cell line Vero which was infected with different EV-A71 clinical isolates (BrCr, H, Shenzhen98 and Jiangsu52). A total of 24 synthetic compounds were initially screened in such an assay to determine their inhibitory effect on virus replication at 3-fold diluted concentrations serial (400~0.18 μM). The 50% effective concentration (EC50) of each compound was calculated according to its inhibitory rate values with the Reed–Muench method. The 50% cytotoxic concentration (CC50) was defined as the concentration that inhibited 50% cellular growth in comparison with the controls. The selectivity index (SI) was calculated as CC50/EC50. […] Generally, the EV-A71 H strain was less sensitive to most of the active compounds as compared to the other virus strains.
(§2) EV-A71 strain ShenZhen98 (SZ98) was isolated from the throat swab sample of an HFMD case which occurred in 1998 in China. This was kindly provided by Dr. Qi Jin, Institute of Pathogen Biology, Chinese Academy of Medical Science and Peking Union Medical School, Beijing, China. EV-A71 strains BrCr (VR-1775) and H (VR-1432) were purchased from the ATCC. The EV-A71 strain JS52 was a kind gift from Dr. Xiangzhong Ye, Beijing Wantai Biological Pharmacy Enterprise Co., Ltd. EV-A71 were all passaged in Vero cells.
(§3) The anti-EV-A71 activity of compounds was determined by the CPE inhibition method. Briefly, cells (3 × 10^4 cells/well) were plated into 96-well culture plates for incubation for 24 h. The medium was then removed and cells were infected with EV-A71 with 100TCID50 (50% tissue culture infective doses) in serum-free medium for 1 h at 37 °C. Then, the unbound viruses were removed and various concentrations of compounds were supplemented and incubated for another 48 h. The EC50 was determined by the Reed–Muench method. The selectivity index was calculated as the ratio of CC50/EC50 [15].

[1] = tested on: EV-A71 strain ShenZhen98 (SZ98); assay: CPE inhibition assay for anti-EV-A71 in Vero cells, Shenzhen98 strain; type: cell-based, Enterovirus 71 (EV-A71); details: for Shenzhen98 SI: CC50/EC50; for EC50: Enterovirus A, EVA71, Vero cells, 100TCID50, 48 h
Description: as §1, §2, §3

[2] = Cytotoxicity assay (CPE) on Vero cells; type: cell-based; details: African green monkey
Description: as §1
African green monkey kidney (Vero) cells were purchased from the American Type Culture Collection (ATCC) and were cultured in minimum essential medium (MEM) supplemented with 10% fetal bovine serum (FBS) (GIBCO) and antibiotics (100 U/mL penicillin and […] streptomycin) at 37 °C in a 5% CO2 incubator.
The cytotoxic effects of compounds on Vero cells were detected by the cytopathic effect (CPE) assay. Briefly, cells (3 × 10^4 cells/well) were seeded into 96-well culture plates and incubated overnight. Then, the medium was removed and different concentrations of compounds were applied in triplicate. After 3 days of incubation, the CC50 was defined as the concentration that inhibited 50% cellular growth in comparison with the untreated controls, as calculated by the Reed–Muench method.

[3] = tested on: EV-A71 strain Jiangsu52 (JS52); assay: CPE inhibition assay for anti-EV-A71 in Vero cells, Jiangsu52 strain; type: cell-based, Enterovirus 71 (EV-A71); details: for Jiangsu52 SI: CC50/EC50; for EC50: Enterovirus A, EVA71, Vero cells, 100TCID50, 48 h
Description: as §1, §2, §3

EV-A71 strain BrCr = assay: CPE inhibition assay for anti-EV-A71 in Vero cells, BrCr strain; type: cell-based, Enterovirus 71 (EV-A71); details: for BrCr SI: CC50/EC50; for EC50: Enterovirus A, EVA71, Vero cells, 100TCID50, 48 h
Description: as §1, §2, §3

[4] = tested on: four EV-A71 strains (BrCr, H, Shenzhen98, Jiangsu52); assay: CPE inhibition assay, summary over four EV-A71 strains; type: cell-based, Enterovirus 71 (EV-A71); details: for EC50: Enterovirus A, EVA71, Vero, read-out: EC50 towards four EV-A71 strains
Description: as §1, §3

EV71 = tested on: EV71; design: method as in PMID 23519203; details: cited from earlier work
[5] = Vero cells, 3 days of incubation, Reed–Muench, read-out: CC50

| SMILES | H SI (EV-A71 strain H) | EC50 (EV-A71 strain H) [µM] | Shenzhen98 SI [1] | EC50 [1] [µM] | CC50 at 3 days [2] [µM] | Jiangsu52 SI [3] | EC50 [3] [µM] | BrCr SI (EV-A71 strain BrCr) | EC50 (EV-A71 strain BrCr) [µM] | EC50 [4] [µM] | CC50 at 3 days [2, 5] [µM] | fold loss in activity ([4]; against four in vitro models, relative to A3) [fold] | SI (EV71; Figure 1) | IC50 (EV71; Figure 1, multiple virus strains, read-out: Anti-EV71 IC50) [µM] | anti-EV-A71 activity (EV71; against multiple virus strains) | SI towards four EV-A71 strains ([4]; CC50/EC50, range over four strains) | EC50 fold higher than pirodavir ([4]; relative to reference compound pirodavir) |
| --- | --- | --- | --- | --- | --- | --- | --- | --- | --- | --- | --- | --- | --- | --- | --- | --- | --- |
| CN1CCN(c2ccc3c(c2)C(=O)N(c2ccc(Cl)cc2)C3)CC1 [Compound D3, 6-(4-methylpiperazin)-2-(4-chlorophenyl)-isoindolin-1-one] | 20 | 2.09 ± 0.54 | 11 | 3.73 ± 0.78 | 42.4 ± 5.47 | 32 | 1.29 ± 0.33 | 16 | 2.71 ± 0.35 | < 10 | – | – | – | – | – | – | – |
| COc1ccc(N2Cc3ccccc3C2=O)cc1 [Compound A7, 2-(4-methoxyphenyl)isoindolin-1-one] | 34 | 9.35 ± 1.44 | 44 | 7.27 ± 0.86 | – | 40 | 7.92 ± 0.86 | 44 | 7.27 ± 0.86 | < 10 | 318 ± 54.5 | – | – | – | – | – | – |
| CCCNc1ccc2c(c1)C(=O)N(c1ccc(OC)cc1)C2 [Compound B1, 2-(4-methoxyphenyl)-6-(propylamino)isoindolin-1-one] | 13 | 5.41 ± 0.63 | 43 | 1.59 ± 0.35 | – | 43 | 1.59 ± 0.43 | 43 | 1.59 ± 0.35 | < 10 | 68.4 ± 5.72 | – | – | – | – | – | – |
| O=C1c2cc(Nc3ccccc3)ccc2CN1c1ccc(Cl)cc1 [Compound D2] | / (/ represents selectivity index (SI) value of less than 10) | 19.6 ± 3.77 | / (/ represents selectivity index (SI) value of less than 10) | 19.8 ± 3.4 | – | / (/ represents selectivity index (SI) value of less than 10) | 15.1 ± 3.23 | / (/ represents selectivity index (SI) value of less than 10) | 19.6 ± 3.77 | – | 115 | 10 | – | – | – | – | – |
| COc1ccc(C(=O)Nc2ccc(Br)cc2)cc1N [N-pheylbenzoamide hit, 3-amino-N-(4-bromophenyl)-4-methoxybenzamide] | – | – | – | – | – | – | – | – | – | – | – | – | 51-110 | 5.7 to 12 | moderate anti-EV-A71 activity | – | – |
| CCOC(=O)c1ccc(OCCC2CCN(c3ccc(C)nn3)CC2)cc1 [pirodavir, reference compound] | 44 | 0.76 ± 0.09 | 67 | 0.5 ± 0.06 | – | 54 | 0.62 ± 0.1 | 88 | 0.38 ± 0.04 | 0.38 to 0.76 | 33.3 | – | – | – | – | – | – |
| Cc1ccc(N2Cc3cc(N)ccc3C2=O)cc1 [Compound 6, 5-amino-2-(p-tolyl)isoindolin-1-one] | 82 | 2.11 ± 0.23 | 86 | 2 ± 0.25 | – | 91 | 1.89 ± 0.32 | 91 | 1.89 ± 0.32 | < 10 | 173 ± 34 | – | – | – | – | – | – |
| COc1cc(N2Cc3ccccc3C2=O)cc(OC)c1OC [Compound A8, 2-(3,4,5-trimethoxyphenyl)isoindolin-1-one] | / (/ represents selectivity index (SI) value of less than 10) | – | / (/ represents selectivity index (SI) value of less than 10) | 13 ± 2 | – | / (/ represents selectivity index (SI) value of less than 10) | 12.6 ± 2.22 | / (/ represents selectivity index (SI) value of less than 10) | 12.6 ± 2.22 | – | 76.5 ± 13.1 | – | – | – | – | – | – |
| O=C1c2ccccc2CN1c1ccc(Br)cc1 [Compound A4, 2-(4-bromophenyl)isoindolin-1-one] | 98 | 1.76 ± 0.19 | 98 | 1.76 ± 0.15 | – | 131 | 1.32 ± 0.22 | 140 | 1.23 ± 0.28 | 1.23 to 1.76 | 173 ± 34 | – | – | – | – | 98–199 | 2–4 fold |
